Test system: contraction of guinea pig ileum by substance P
Assay: Antagonism of the in vitro contraction of guinea pig ileum by substance P
Assay type: cell-based
Conditions: for substance P antagonism (conclusion of the tests): conclusion from NK1 binding and guinea pig ileum tests
Experimental: b). Model of antagonism of the in vitro contraction of guinea pig ileum by substance P (10 nM) according to the technique described by Dion et al., Life Sci. 41: 2269-78 (1987) and Patacchini et al., Eur. J. Pharmacol. 215: 93-8 (1992).

Row | Compound | inhibition at 1 µM (Cavia porcellus, 1 μM, substance P 10 nM) [%] | inhibition at 10 µM (Cavia porcellus, 10 μM, substance P 10 nM) [%] | inhibition at 100 µM (Cavia porcellus, 100 μM, substance P 10 nM) [%] | substance P antagonism (conclusion of the tests)
1 | Cc1cc(C)cc(CNCCNCc2cc(C)cc(C)c2)c1 [Example 1, N,N'-bis(3,5-dimethylbenzyl)ethylenediamine] | -24 | -92 | -100 | substance P antagonists
2 | COc1cc(CNCCNCc2cc(OC)cc(OC)c2)cc(OC)c1 [Example 2, N,N'-bis(3,5-dimethoxybenzyl)ethylenediamine] |  |  |  | substance P antagonists

Source: patent publication US5714155A, “Ethylenediamine derivative in a cosmetic or dermatological composition, and composition containing in particular a product having an irritant side effect” (Societe L'oreal S.A., priority 1994, dated 1998)
